Article PMC8154578, “Sustainable Drug Discovery of Multi-Target-Directed Ligands for Alzheimer’s Disease” (Journal of Medicinal Chemistry, 2021)

How the values were obtained:
[1] = test system: TNF-α, IL-1β, iNOS and COX-2 mRNA in LPS-induced BV-2 cells; test: Expression of proinflammatory cytokines and enzymes in LPS-induced BV-2 cells (real-time PCR); type: cell-based, murine; conditions: 0.1 μM for 24 h, then 100 ng/mL LPS for 24 h, compared to LPS
[2] = test system: IL-1β release in LPS-activated BV-2 cells; test: Secretion of IL-1β in activated BV-2 cells (ELISA); type: cell-based, murine; conditions: 0.1 μM for 24 h, then 100 ng/mL LPS for 24 h, compared to LPS-treated cells
[3] = test system: RAW264.7 murine macrophage cell line; set-up: method as in PMID 29890972; conditions: 50 μM; cited from earlier work

| SMILES | COX-2 mRNA expression [1] | IL-1β mRNA expression [1] | TNF-α mRNA expression [1] | iNOS mRNA expression [1] | release of IL-1β in the culture medium [2] | expression of TNF-α, iNOS, COX-2, NF-κB, IL-1β, and IL-6 [3] |
| --- | --- | --- | --- | --- | --- | --- |
| COC(=O)c1c(CCCCCCCCNc2c3c(nc4cc(Cl)ccc24)CCCC3)cccc1OC [Compound 6, Methyl 2-(8-((6-Chloro-1,2,3,4-tetrahydroacridin-9-yl)amino)octyl)-6-methoxybenzoate] | significantly reduce | significantly reduce | significantly reduce | significantly reduce | significantly decrease |  |
| COC(=O)c1c(CCCCCCCCNc2c3c(nc4ccccc24)CCCC3)cccc1OC [Compound 5, Methyl 2-Methoxy-6-(8-((1,2,3,4-tetrahydroacridin-9-yl)amino)octyl)benzoate] | significantly downregulated | significantly downregulated | not TNF-α | significantly downregulated | significantly decrease |  |
| CCCCCCCCCCCCCCCc1cccc(O)c1C(=O)O [Compound 1a, reference compound] | reduced | reduced | reduced only the expression of IL-1β and COX-2 | reduced only the expression of IL-1β and COX-2 |  | significantly reduce |
